Results published in patent US11590142B2, “Oxazolidinone antibiotic compounds and process of preparation” (Bugworks Research, Inc., priority 2018, dated 2023).
Converted amounts (≈) assume the structure as drawn.

Columns and labels:
Type in all cases: cell-based
[1] = test system: Klebsiella pneumoniae ATCC 13883; test: Minimum Inhibitory Concentration (MIC) in LB media; conditions: ATCC13883, read-out: Minimum Inhibitory Concentration K. pneumoniae ATCC 13883
Procedure: (§1) Biological Activity (Antibacterial activity): The compounds of Formula (I) are of interest due to their potent antibacterial effects. […] The medium sterility is checked by incubating at 37° C. for a period of 48 h. Bacterial cultures that are stored as glycerol stocks at -80° C. are sub cultured on LB agar plates to obtain isolated colonies. A single colony of each strain is cultured in LB broth. The cultures are incubated at 37° C., 200 rpm till they reach an optical density (OD at 600 nm) of 0.8 to 1. […] Test compounds are dissolved in dimethyl sulfoxide (DMSO) to a stock concentration of 4 mg/mi. A twofold dilution series of this DMSO stock is prepared in a 96 well V bottom microtitre plate from rows A to H. A 3 μL volume of these dilutions are transferred to a 96-well flat bottom microtitre assay plate. Controls to monitor the effects of DMSO and media sterility are included. Each well is inoculated with 150 μL of the above diluted culture. The plates are incubated at 37° C. overnight in a humidified incubator. The following morning, the plates are read using a Spectrophotometer at 600 nm wavelength.

[2] = test system: Enterococcus faecalis ATCC 29212; test: Minimum Inhibitory Concentration (MIC) in LB media; conditions: ATCC29212, read-out: Minimum Inhibitory Concentration E. faecalis ATCC 29212
Procedure: as §1

[3] = test system: Escherichia coli ATCC 25922; test: Minimum Inhibitory Concentration (MIC) in LB media; conditions: ATCC25922, read-out: Minimum Inhibitory Concentration E. coli ATCC 25922
Procedure: as §1

[4] = test system: Pseudomonas aeruginosa ATCC 27853; test: Minimum Inhibitory Concentration (MIC) in LB media; conditions: ATCC27853, read-out: Minimum Inhibitory Concentration P. aurigenosa ATCC 27853
Procedure: as §1

[5] = test system: Staphylococcus aureus ATCC 29213; test: Minimum Inhibitory Concentration (MIC) in LB media; conditions: ATCC29213, read-out: Minimum Inhibitory Concentration S. aureus ATCC 29213
Procedure: as §1

[6] = test system: Acinetobacter baumannii ATCC 19606; test: Minimum Inhibitory Concentration (MIC) in LB media; conditions: ATCC19606
Procedure: as §1

E. coli ATCC25922 = test: Antibacterial susceptibility study, reference strain, CLSI guidelines
[7] = test system: P. aurigenosa clinical strains; test: Antibacterial susceptibility studies (MIC50 and MIC90), clinical strains, CLSI guidelines; conditions: for MIC50: read-out: MIC50; for MIC90: read-out: MIC90
E. coli clinical strains = test: as above; conditions: for MIC50 / MIC90: Escherichia coli; for MIC50: read-out: MIC50; for MIC90: read-out: MIC90
P. aurigenosa ATCC27853 = test: Antibacterial susceptibility study, reference strain, CLSI guidelines
K. pneumoniae ATCC13883 = test: as above
[8] = test system: A. baumannii clinical strains; test: Antibacterial susceptibility studies (MIC50 and MIC90), clinical strains, CLSI guidelines; conditions: for MIC50 / MIC90: Acinetobacter baumannii; for MIC50: read-out: MIC50; for MIC90: read-out: MIC90; for Minimum (MIC): in µg/mL
[9] = test system: K. pneumoniae clinical strains; test: as above; conditions: for MIC50 / MIC90: Klebsiella pneumoniae; for MIC50: read-out: MIC50; for MIC90: read-out: MIC90
A. baumannii ATCC19606 = test: Antibacterial susceptibility study, reference strain, CLSI guidelines
[10] = molecular target: human ether a go-go related gene (hERG) K+ channel (Homo sapiens (Human), UniProt Q12809); test: hERG inhibition assay, QPatch HTX automated electrophysiology; conditions: CHO cell line stably expressing hERG, whole-cell patch clamp, maximum test concentration 300 μM
Chain of human ether a go-go related gene (hERG) K+ channel (Q12809 whole entry): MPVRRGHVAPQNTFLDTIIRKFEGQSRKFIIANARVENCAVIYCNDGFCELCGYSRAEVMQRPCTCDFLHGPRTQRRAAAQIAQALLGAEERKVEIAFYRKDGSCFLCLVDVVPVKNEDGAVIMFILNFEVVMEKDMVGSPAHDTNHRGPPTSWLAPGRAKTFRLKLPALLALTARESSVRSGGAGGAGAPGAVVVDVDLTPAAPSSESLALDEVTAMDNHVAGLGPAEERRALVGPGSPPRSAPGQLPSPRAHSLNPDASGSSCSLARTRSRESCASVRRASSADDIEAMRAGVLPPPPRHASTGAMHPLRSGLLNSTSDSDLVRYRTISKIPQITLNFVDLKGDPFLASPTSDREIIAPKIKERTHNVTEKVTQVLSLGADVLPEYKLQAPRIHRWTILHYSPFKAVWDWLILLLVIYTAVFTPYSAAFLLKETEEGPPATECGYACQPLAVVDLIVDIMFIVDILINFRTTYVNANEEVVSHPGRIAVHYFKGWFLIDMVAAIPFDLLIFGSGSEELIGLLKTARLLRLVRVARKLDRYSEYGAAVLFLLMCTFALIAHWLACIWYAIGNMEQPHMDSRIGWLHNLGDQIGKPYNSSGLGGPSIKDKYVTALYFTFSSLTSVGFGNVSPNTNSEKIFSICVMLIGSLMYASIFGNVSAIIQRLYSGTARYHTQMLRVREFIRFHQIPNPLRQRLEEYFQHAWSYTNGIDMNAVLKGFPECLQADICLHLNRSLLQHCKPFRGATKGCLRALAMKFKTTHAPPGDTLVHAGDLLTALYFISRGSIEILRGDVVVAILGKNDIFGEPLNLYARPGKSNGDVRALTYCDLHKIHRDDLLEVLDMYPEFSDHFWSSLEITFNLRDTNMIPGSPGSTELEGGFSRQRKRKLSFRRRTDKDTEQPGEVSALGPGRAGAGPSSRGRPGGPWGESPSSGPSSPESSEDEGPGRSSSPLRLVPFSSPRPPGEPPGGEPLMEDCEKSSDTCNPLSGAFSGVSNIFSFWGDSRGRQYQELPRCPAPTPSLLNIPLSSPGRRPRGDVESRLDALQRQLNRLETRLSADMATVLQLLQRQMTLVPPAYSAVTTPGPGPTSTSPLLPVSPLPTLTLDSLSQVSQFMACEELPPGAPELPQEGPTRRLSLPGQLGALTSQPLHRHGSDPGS
Procedure: The compounds were tested for inhibition of the human ether a go-go related gene (hERG) K+ channel using QPatch HTX automated electrophysiology. […] Compounds were solubilised to 100 mM in DMSO before dilution in HBPS to 300 μM. […] Electrophysiological recordings were made from a Chinese Hamster Ovary cell line stably expressing the full-length hERG potassium channel. Single cell ionic currents were measured in whole-cell patch clamp configuration at room temperature (21-23° C.) using the QPatch HTX platform (Sophion). Intracellular solution contained (mM): 120 KF, 20 KCl, 10 EGTA, 10 HEPES and was buffered to pH 7.3. […] Cells were clamped at a holding potential of −80 mV. Cells were stepped to +20 mV for 2 s then −40 mV for 3s before returning to the holding potential. This sweep was repeated 10 times at 10 s intervals. hERG currents were measured from the tail step and referenced to the holding current. Compounds were then incubated for 2 minutes prior to a second measurement of ion channel current using an identical pulse train.

[11] = test system: E. cloacae clinical strains; test: Antibacterial susceptibility studies (MIC50 and MIC90), clinical strains, CLSI guidelines; conditions: for MIC50 / MIC90: Enterobacter cloacae; for MIC50: read-out: MIC50; for MIC90: read-out: MIC90

SMILES	MIC [1] [µg/mL]	MIC [2] [µg/mL]	MIC [3] [µg/mL]	MIC [4] [µg/mL]	MIC [5] [µg/mL]	MIC [6] [µg/mL]	ATCC25922 (MIC) (E. coli ATCC25922) [µg/mL]	Minimum (MIC) [7] [µg/mL]	MIC50 [7] [µg/mL]	MIC90 [7] [µg/mL]	Minimum (MIC) (E. coli clinical strains) [µg/mL]	MIC50 (E. coli clinical strains) [µg/mL]	MIC90 (E. coli clinical strains) [µg/mL]	ATCC27853 (MIC) (P. aurigenosa ATCC27853) [µg/mL]	ATCC13883 (MIC) (K. pneumoniae ATCC13883) [µg/mL]	MIC50 [8] [µg/mL]	MIC90 [8] [µg/mL]	Minimum (MIC) [8]	Minimum (MIC) [9] [µg/mL]	MIC50 [9] [µg/mL]	also measured
Cn1c(=O)cnc2ccc(OCCNC[C@H]3CN(c4cnc5c(n4)NC(=O)CO5)C(=O)O3)nc21 [Compound 7, (S)-6-(5-(((2-((4-methyl-3-oxo-3,4-dihydropyrido[2,3-b]pyrazin-6-yl)oxy)ethyl)amino)methyl)-2-oxooxazolidin-3-yl)-2H-pyrazino[3,2-b][1,4]oxazin-3(4H)-one]	0.13 (≈ 0.278 µM)	0.25 (≈ 0.534 µM)	0.06 (≈ 0.128 µM)	1 (≈ 2.13 µM)	0.06 (≈ 0.128 µM)	0.25 (≈ 0.534 µM)	0.06	0.06	0.5 (≈ 1.07 µM)	2 (≈ 4.27 µM)	0.03	0.25 (≈ 0.534 µM)	0.5 (≈ 1.07 µM)	1	0.13	0.5 (≈ 1.07 µM)	0.5 (≈ 1.07 µM)	0.06	0.125	1 (≈ 2.13 µM)	MIC90 [9]: 4 µg/mL (≈ 8.54 µM); ATCC19606 (MIC) (A. baumannii ATCC19606): 0.25 µg/mL; IC50 [10]: > 300 µM; Minimum (MIC) [11]: 0.06 µg/mL; MIC50 [11]: 0.5 µg/mL (≈ 1.07 µM); MIC90 [11]: 2 µg/mL (≈ 4.27 µM)
Cn1c(=O)ccc2ncc(OCCNC[C@H]3CN(c4cnc5c(n4)NC(=O)CS5)C(=O)O3)nc21 [Compound 14, (S)-5-(((2-((5-Methyl-6-oxo-5,6-dihydropyrido[2,3-b]pyrazin-3-yl)oxy)ethyl)amino)methyl)-3-(3-oxo-3,4-dihydro-2H-pyrazino[2,3-b][1,4]thiazin-6-yl)oxazolidin-2-one]	0.03 (≈ 0.0619 µM)	0.03 (≈ 0.0619 µM)	0.03 (≈ 0.0619 µM)	0.5 (≈ 1.03 µM)	≤ 0.03	0.03 (≈ 0.0619 µM)	0.03	0.06	0.5 (≈ 1.03 µM)	1 (≈ 2.06 µM)	0.03	0.06 (≈ 0.124 µM)	0.25 (≈ 0.516 µM)	0.5	0.03	0.25 (≈ 0.516 µM)	0.5 (≈ 1.03 µM)	0.03	0.03	0.25 (≈ 0.516 µM)	MIC90 [9]: 0.5 µg/mL (≈ 1.03 µM); ATCC19606 (MIC) (A. baumannii ATCC19606): 0.03 µg/mL; IC50 [10]: > 150 µM; Minimum (MIC) [11]: 0.03 µg/mL; MIC50 [11]: 0.25 µg/mL (≈ 0.516 µM); MIC90 [11]: 0.5 µg/mL (≈ 1.03 µM)
